“Also recorded” adds a separate entry of the source.
Experiments:
Format in all cases: binding, human
[1] = test system: HLA supertypes of class I; assay: Affinity of epitopes for HLA supertypes of class I; conditions: for Affinity for the HLA supertypes of class I: H2B-1 epitopes; for Affinity for the HLA supertypes of class I / Affinity HLA supertype allele of class I: Table 1; for Affinity for HLA supertypes of class I: LmLRAB (IA, IB, IC) epitopes, Table 2; for Affinity HLA supertype allele of class I: H2B-II core epitopes
Text: HLA molecules are highly polymorphous. This is because there exist more than 2500 HLA proteins of class I (HLA-I) and more than 1000 HLA proteins of class II (HLA-II). However, some of these HLA molecules, close in sequence and in spatial conformation, may have epitopes common to the T cells. The grouping of several thousands of HLA molecules is at the present time described in a little more than 20 or so categories, referred to as “HLA supertypes” having epitopes that are very well preserved for each supertype.

[2] = test system: HLA alleles of class I; assay: Affinity of epitopes for HLA alleles of class I; conditions: for Affinity for the HLA alleles of class I: H2B-1 epitopes; for Affinity for the HLA alleles of class I / Affinity HLA alleles of class I: Table 1; for Concatenation affinity for HLA allele of class I: LmLRAB (IA, IB, IC) epitopes, Table 2; for Affinity HLA alleles of class I: H2B-II core epitopes
Text: The multiepitopic peptide compounds (24 to 40-mer), having a high affinity with a maximized number of HLA molecules of class I and of class II, such as the affinities for the alleles HLA of class I and HLA of class II of the epitopes in the peptides of the sequences SEQ ID NO: 22, 23, 65, 66, 69, 73, 77, 96, 97, 137, 138, and 157, 185, have a high immunoprevalent potential corresponding to an optimal vaccine coverage, in particular for the populations concerned. The degree of coverage of the peptide compounds of the invention show a very high added value compared with the peptides of the prior art.

[3] = test system: HLA alleles of class II; assay: Affinity of epitopes for HLA alleles of class II; conditions: Table 1; for Affinity for the HLA alleles of class II: H2B-1 epitopes; for Affinity HLA alleles of class II: H2B-II core epitopes

MERICTEAA (Leishmania major) [SEQ ID NO: 6]
Affinity for the HLA supertypes of class I [1]: HLA-B*44
Affinity for the HLA alleles of class I [2]: HLA-B*40:02,; also recorded: HLA-B*45

MMERICTEA (Leishmania major) [SEQ ID NO: 5]
Affinity for the HLA supertypes of class I [1]: HLA-A*02
Affinity for the HLA alleles of class I [2]: HLA-A*02:03,; also recorded: HLA-A*02:01

MMERICTEAA (Leishmania major) [SEQ ID NO: 7]
Affinity for the HLA supertypes of class I [1]: HLA-A*02
Affinity for the HLA alleles of class I [2]: HLA-A*02:03

MPHVDQSSI (Leishmania major) [SEQ ID NO: 74]
Affinity for HLA supertypes of class I [1]: HLA-B*07,; also recorded: HLA-B*08
Concatenation affinity for HLA allele of class I [2]: HLA-B*07:02,; also recorded: HLA-B*35:01,; also recorded: HLA-B*51:01,; also recorded: HLA-B*53:01,; also recorded: HLA-B*08:01

MSHRTMKIK (Leishmania major) [SEQ ID NO: 8]
Affinity for the HLA supertypes of class I [1]: HLA-A*01/HLA-A*03,
Affinity for the HLA alleles of class I [2]: HLA-A*30:01,; also recorded: HLA-A*03:01,; also recorded: HLA-A*11:01

MSHRTMKIKA (Leishmania major) [SEQ ID NO: 9]
Affinity for the HLA supertypes of class I [1]: HLA-A*01/HLA-A*03
Affinity for the HLA alleles of class I [2]: HLA-A*30:01

MSHRTMKSM (Leishmania major) [SEQ ID NO: 10]
Affinity for the HLA supertypes of class I [1]: HLA-A*01/HLA-A*03,; also recorded: HLA-B*58,; also recorded: HLA-B*62
Affinity for the HLA alleles of class I [2]: HLA-B*57:01,; also recorded: HLA-A*30:01,; also recorded: HLA-B*15:01

MSMSHRTM (Leishmania major) [SEQ ID NO: 11]
Affinity for the HLA supertypes of class I [1]: HLA-B*08
Affinity for the HLA alleles of class I [2]: HLA-B*08:01

MSMSHRTMK (Leishmania major) [SEQ ID NO: 12]
Affinity for the HLA supertypes of class I [1]: HLA-A*01/HLA-; also recorded: A*03, HLA-A*03
Affinity for the HLA alleles of class II [3]: DRB1*03:01,; also recorded: DRB1*09:01,; also recorded: DRB1*11:01
Affinity for the HLA alleles of class I [2]: HLA-A*11:01,; also recorded: HLA-A*31:01,; also recorded: HLA-A*03:01,; also recorded: HLA-A*68:01,; also recorded: HLA-A*30:01,; also recorded: HLA-A*33:01

MSMSHRTMKS (Leishmania major) [SEQ ID NO: 13]
Affinity for the HLA supertypes of class I [1]: HLA-A*03
Affinity for the HLA alleles of class I [2]: HLA-A*03:01,; also recorded: HLA-A*11:01

NAQMSMMER (Leishmania major) [SEQ ID NO: 14]
Affinity for the HLA supertypes of class I [1]: HLA-A*03
Affinity for the HLA alleles of class I [2]: HLA-A*68:01,; also recorded: HLA-A*33:01,; also recorded: HLA-A*31:01

NENNITGGL (MENNITGGL; Leishmania major) [SEQ ID NO: 67]
Affinity for HLA supertypes of class I [1]: HLA-B*44
Concatenation affinity for HLA allele of class I [2]: HLA-B*40:02,; also recorded: HLA-B*44:02,; also recorded: HLA-B*44:03; also recorded: HLA-B*18:01,; also recorded: HLA-B*40:01,

NVYVGRSLK (Leishmania major) [SEQ ID NO: 47]
Affinity HLA supertype allele of class I [1]: HLA-A*03
Affinity HLA alleles of class II [3]: HLA-DRB5*01:01
Affinity HLA alleles of class I [2]: HLA-A*03:01

QMSMSHRTM (Leishmania major) [SEQ ID NO: 49]
Affinity HLA supertype allele of class I [1]: HLA-B*62
Affinity HLA alleles of class II [3]: HLA-DRB1*01:01,; also recorded: HLA-DRB4*01:01
Affinity HLA alleles of class I [2]: HLA-B*15:01

RFAQGEHDI (Leishmania major) [SEQ ID NO: 70]
Affinity for HLA supertypes of class I [1]: HLA-A*24
Concatenation affinity for HLA allele of class I [2]: HLA-A*2403

RLPENAFVI (Leishmania major) [SEQ ID NO: 71]
Affinity for HLA supertypes of class I [1]: HLA-A*01,; also recorded: HLA-A*02
Concatenation affinity for HLA allele of class I [2]: HLA-A*32:01,; also recorded: HLA-A*02:06,; also recorded: HLA-A*02:11,; also recorded: HLA-A*02:12,; also recorded: HLA-A*02:16,; also recorded: HLA-A*02:19

SLKAINAQM (Leishmania major) [SEQ ID NO: 50]
Affinity HLA supertype allele of class I [1]: HLA-B*62
Affinity HLA alleles of class II [3]: HLA-DRB1*04:01,; also recorded: HLA-DRB1*08:02,; also recorded: HLA-DRB1*09:01,; also recorded: HLA-DRB1*11:01,; also recorded: HLA-DRB1*13:02,; also recorded: HLA-DRB4*01:01
Affinity HLA alleles of class I [2]: HLA-B*15:01

SMSHRTMK (Leishmania major) [SEQ ID NO: 15]
Affinity for the HLA supertypes of class I [1]: HLA-A*03
Affinity for the HLA alleles of class I [2]: HLA-A*03:01

SMSHRTMKI (Leishmania major) [SEQ ID NO: 16]
Affinity for the HLA supertypes of class I [1]: HLA-A*02
Affinity for the HLA alleles of class II [3]: DRB1*07:01,; also recorded: DRB1*13:02
Affinity for the HLA alleles of class I [2]: HLA-A*02:03,; also recorded: HLA-A*32:01,; also recorded: HLA-A*02:01

SMSHRTMKIK (Leishmania major) [SEQ ID NO: 17]
Affinity for the HLA supertypes of class I [1]: HLA-A*01/HLA-; also recorded: A*03, HLA-A*03
Affinity for the HLA alleles of class I [2]: HLA-A*03:01,; also recorded: HLA-A*11:01,; also recorded: HLA-A*30:01

SMSHRTMKS (Leishmania major) [SEQ ID NO: 18]
Affinity for the HLA supertypes of class I [1]: HLA-A*02
Affinity for the HLA alleles of class I [2]: HLA-A*02:03

SSIMVVANK (Leishmania major) [SEQ ID NO: 76]
Affinity for HLA supertypes of class I [1]: HLA-A*01/HLA-A*03,
Concatenation affinity for HLA allele of class I [2]: HLA-A*30:01,; also recorded: HLA-A*03:01,; also recorded: HLA-A*11:01,; also recorded: HLA-A*31:01,; also recorded: HLA-A*68:01

TMKSMSHRT (Leishmania major) [SEQ ID NO: 20]
Affinity for the HLA supertypes of class I [1]: HLA-A*02
Affinity for the HLA alleles of class I [2]: HLA-A*02:03

TQGSSKAGF (Leishmania major) [SEQ ID NO: 72]
Affinity for HLA supertypes of class I [1]: HLA-B*27,; also recorded: HLA-B*62
Concatenation affinity for HLA allele of class I [2]: HLA-B*15:01,; also recorded: HLA-B*15:02
